In the supplement of paper PMC10307832:

Columns and labels:
Test in all cases: relative viability (nuclei count vs DMSO), 5 days (fraction); higher = more cells survive
Tanzisertib + Navitoclax = compound: O[C@H]1CC[C@H](Nc2ncc3nc(Nc4c(F)cc(F)cc4F)n([C@H]4CCOC4)c3n2)CC1 [Tanzisertib] + CC1(C)CCC(c2ccc(Cl)cc2)=C(CN2CCN(c3ccc(C(=O)NS(=O)(=O)c4ccc(N[C@H](CCN5CCOCC5)CSc5ccccc5)c(S(=O)(=O)C(F)(F)F)c4)cc3)CC2)C1 [Navitoclax] (partner 0.5 µM)
In short: (§1)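 Values are medians from duplicate plates. Each reflects relative viability, defined as the nuclei count of treated wells over that of vehicle wells. Lung cancer cell lines in 1536-well plates were pin-tool dosed one day after seeding with one drug alone or with a fixed anchor-drug dose plus five library-drug doses (not always all listed) in √10 steps, then fixed, stained and imaged at 4× after 5 days.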

Tanzisertib + Linsitinib = compound: O[C@H]1CC[C@H](Nc2ncc3nc(Nc4c(F)cc(F)cc4F)n([C@H]4CCOC4)c3n2)CC1 [Tanzisertib] + C[C@]1(O)C[C@@H](c2nc(-c3ccc4ccc(-c5ccccc5)nc4c3)c3c(N)nccn32)C1 [Linsitinib] (partner 1 µM)
In short: as §1

[1] = compound: C1CNCCC1C2=CC(=NN2)C3=CC=NC=C3 + CS(=O)(=O)N1CCN(Cc2cc3nc(-c4cccc5[nH]ncc45)nc(N4CCOCC4)c3s2)CC1 [Pictilisib] (partner 1 µM)
In short: as §1

[2] = compound: C1CNCCC1C2=CC(=NN2)C3=CC=NC=C3 + CC(=O)c1c(C)c2cnc(Nc3ccc(N4CCNCC4)cn3)nc2n(C2CCCC2)c1=O [Palbociclib] (partner 0.5 µM)
In short: as §1

Cell Line | relative viability (Tanzisertib + Navitoclax; first compound 0.08 µM) | relative viability (Tanzisertib + Navitoclax; first compound 0.253 µM) | relative viability (Tanzisertib + Navitoclax; first compound 0.8 µM) | relative viability (Tanzisertib + Navitoclax; first compound 2.53 µM) | relative viability (Tanzisertib + Navitoclax; first compound 8 µM) | relative viability (Tanzisertib + Linsitinib; first compound 0.08 µM) | relative viability (Tanzisertib + Linsitinib; first compound 0.253 µM) | relative viability (Tanzisertib + Linsitinib; first compound 0.8 µM) | relative viability (Tanzisertib + Linsitinib; first compound 2.53 µM) | relative viability (Tanzisertib + Linsitinib; first compound 8 µM) | relative viability ([1]; first compound 0.08 µM) | relative viability ([1]; first compound 0.8 µM) | relative viability ([1]; first compound 2.53 µM) | relative viability ([1]; first compound 8 µM) | relative viability ([2]; first compound 0.08 µM) | relative viability ([2]; first compound 0.8 µM) | relative viability ([2]; first compound 2.53 µM) | relative viability ([2]; first compound 8 µM)
NCI-H2228 | 0.985 | 1.06 | 1.07 | 1.04 | 0.742 | 0.877 | 0.691 | 0.573 | 0.553 | 0.509 | 0.388 | 0.483 | 0.409 | 0.544 | 0.822 | 0.991 | 0.787 | 0.863
RERF-LC-KJ | 0.918 | 0.789 | 0.791 | 0.818 | 0.882 | 0.942 | 0.834 | 0.971 | 0.862 | 0.877 | 0.458 | 0.619 | 0.715 | 0.625 | 0.989 | 1.14 | 1.11 | 1.06
HCC-366 | 1.16 | 1.02 | 1.08 | 1.13 | 1.01 | 0.757 | 0.59 | 0.691 | 0.576 | 0.419 | 0.162 | 0.127 | 0.11 | 0.182 | 0.336 | 0.409 | 0.398 | 0.385
SK-LU-1 | 0.834 | 0.748 | 0.759 | 1.25 | 0.8 | 1.16 | 1.15 | 1.14 | 1.17 | 1.23 | 0.515 | 0.499 | 0.686 | 0.644 | 0.418 | 0.348 | 0.43 | 0.397
HCC-44 | 1.18 | 0.985 | 0.992 | 0.916 | 0.973 | 0.683 | 0.74 | 0.673 | 0.602 | 0.724 | 0.585 | 0.648 | 0.716 | 0.593 | 0.994 | 0.997 | 1 | 0.97
A-427 | 0.952 | 0.938 | 1.01 | 0.86 | 0.958 | 1.15 | 1.11 | 1.14 | 1.07 | 1.17 | 0.707 | 0.891 | 0.685 | 0.8 | 0.486 | 0.559 | 0.529 | 0.49
SW 1573 | 1.02 | 0.994 | 0.974 | 1.05 | 0.909 | 0.968 | 0.85 | 0.703 | 0.753 | 0.672 | 0.516 | 0.533 | 0.496 | 0.509 | – | 0.471 | 0.405 | 0.411
NCI-H322M | 1.34 | 1.12 | 1.11 | 1.16 | 1.16 | 1 | 0.891 | 0.795 | 0.88 | 1.02 | 0.423 | 0.482 | 0.523 | 0.479 | 0.489 | 0.425 | 0.468 | 0.508
LK-2 | 0.871 | 0.847 | 0.87 | 0.884 | 0.9 | 0.522 | 0.519 | 0.724 | 0.624 | 0.637 | 0.452 | 0.746 | 0.572 | 0.623 | – | 0.658 | 0.801 | 0.735
NCI-H2023 | 1.07 | 1.05 | 1.08 | 0.999 | 0.962 | 0.702 | 0.589 | 0.759 | 0.621 | 0.56 | 0.251 | 0.228 | 0.27 | 0.295 | 0.315 | 0.379 | 0.418 | 0.386
SK-MES-1 | 1.31 | 1.25 | 1.26 | 1.22 | 1.21 | 1.08 | 1.06 | 1.06 | 1.12 | 0.832 | 0.397 | 0.344 | 0.404 | 0.319 | 0.308 | 0.316 | 0.37 | 0.353
NCI-H1793 | 0.432 | 0.424 | 0.445 | 0.39 | 0.382 | 1.04 | 0.686 | 0.972 | 0.884 | 0.816 | 0.294 | 0.357 | 0.422 | 0.358 | 0.296 | – | 0.329 | 0.364
NCI-H2405 | 0.968 | 0.837 | 1.02 | 1.03 | 0.688 | 0.954 | 0.881 | 0.968 | 0.904 | 0.702 | 0.442 | 0.441 | 0.373 | 0.366 | 0.502 | 0.519 | 0.586 | 0.507
NCI-H460 | 1.32 | 1.21 | 0.986 | 1.2 | 1.24 | 0.982 | 0.706 | 0.738 | 0.783 | 0.525 | 0.423 | 0.289 | 0.436 | 0.385 | 0.105 | 0.179 | 0.315 | 0.303
NCI-H1755 | 1.1 | 1.02 | 0.98 | 0.982 | 0.931 | 0.989 | 0.997 | 0.975 | 0.953 | 0.892 | 0.423 | 0.412 | 0.419 | 0.372 | 0.437 | 0.442 | 0.462 | 0.365
NCI-H1734 | 1.03 | 0.777 | 0.852 | 0.867 | 0.757 | 1.09 | 0.902 | 0.861 | 0.871 | 0.87 | 0.427 | 0.451 | 0.469 | 0.452 | 0.303 | 0.34 | 0.309 | 0.345
EPLC-272H | 1.33 | 1.14 | 0.971 | 1.17 | 1.04 | 1.46 | 1.18 | 1.19 | 1.12 | 1.08 | 0.384 | 0.361 | 0.285 | 0.337 | 0.343 | 0.359 | 0.326 | 0.334
NCI-H2126 | 0.914 | 0.854 | 0.877 | 0.815 | 0.893 | 0.814 | 0.77 | 0.712 | 0.726 | 0.736 | 0.521 | 0.492 | 0.55 | 0.539 | 0.364 | 0.368 | 0.322 | 0.354
